Data as given in US11976057B2, “MrgX2 antagonists” (GlaxoSmithKline Intellectual Property Development Limited, priority 2020, dated 2024).

target: T1, human MRGPRX2 (Homo sapiens, UniProt Q96LB1); experiment: Ca2+ mobilization assay (FLIPR TETRA): inhibition of Cortistatin-14 mediated MRGPRX2 activation
T1 sequence (Q96LB1 1-330): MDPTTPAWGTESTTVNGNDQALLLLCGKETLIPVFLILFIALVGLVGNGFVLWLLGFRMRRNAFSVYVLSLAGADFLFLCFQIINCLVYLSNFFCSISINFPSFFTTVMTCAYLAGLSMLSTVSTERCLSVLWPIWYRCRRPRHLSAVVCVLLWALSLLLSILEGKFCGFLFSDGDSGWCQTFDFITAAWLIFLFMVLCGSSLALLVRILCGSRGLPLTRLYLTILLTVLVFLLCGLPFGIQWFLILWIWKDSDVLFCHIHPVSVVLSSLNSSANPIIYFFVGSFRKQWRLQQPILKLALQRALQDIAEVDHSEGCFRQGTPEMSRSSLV

| SMILES | IC50 |
| --- | --- |
| C[C@@H](C(=O)Nc1ccc(F)cn1)N1CCC(F)(F)[C@@H](c2c[nH]c(=O)c(N)c2)C1 [Example 142, (S)-2-((S)-3-(5-amino-6-oxo-1,6-dihydropyridin-3-yl)-4,4-difluoropiperidin-1-yl)-N-(5-fluoropyridin-2-yl)propanamide] | 100 to 3160 nM |
| C[C@H]1C[C@@H](c2ccc(=O)[nH]c2)CN([C@@H](C)C(=O)Nc2ccc(Cl)cn2)C1 [Example 172] | 100 to 3160 nM |
| C[C@@H](C(=O)Nc1ccc(OCC2CC2)cn1)N1CCC(F)(F)[C@@H](c2ccc(=O)n(C)c2)C1 [Example 150, (S)—N-(5-(cyclopropylmethoxy)pyridin-2-yl)-2-((S)-4,4-difluoro-3-(1-methyl-6-oxo-1,6-dihydropyridin-3-yl)piperidin-1-yl)propanamide] | 10 to 100 nM |
| CNCc1cc([C@H]2CN([C@@H](C)C(=O)Nc3cnc(Oc4ccc(F)cc4F)cn3)CCC2(F)F)c[nH]c1=O [Example 244, (S)-2-((S)-4,4-difluoro-3-(5-((methylamino)methyl)-6-oxo-1,6-dihydropyridin-3-yl)piperidin-1-yl)-N-(5-(2,4-difluorophenoxy)pyrazin-2-yl)propanamide] | ≤ 10 nM |
| CC(C(=O)Nc1ccc(OCC2CC2(F)F)cn1)N1CCC(F)(F)[C@@H](c2ccc(=O)[nH]c2)C1 (stereo partly drawn) [Example 36, 2-((S)-4,4-difluoro-3-(6-oxo-1,6-dihydropyridin-3-yl)piperidin-1-yl)-N-(5-((2,2-difluorocyclo-propyl)methoxy)pyridin-2-yl)propanamide] | 100 to 3160 nM |
| C[C@@H](C(=O)Nc1ccc(Oc2ccc(F)cc2)cn1)N1CCC(F)(F)[C@@H](c2cc[n+]([O-])cc2)C1 [Example 114, 4-((S)-4,4-difluoro-1-((S)-1-((5-(4-fluorophenoxy)pyridin-2-yl)amino)-1-oxopropan-2-yl)piperidin-3-yl)pyridine 1-oxide] | ≤ 10 nM |
| C[C@@H](C(=O)Nc1cnc(C2CC2)cn1)N1CCC(F)(F)[C@@H](c2ccc(=O)[nH]c2)C1 [Example 70, (S)-N-(5-cyclopropyl-pyrazin-2-yl)-2-((S)-4,4-difluoro-3-(6-oxo-1,6-dihydropyridin-3-yl)piperidin-1-yl)propanamide] | 100 to 3160 nM |
| CC(C(=O)Nc1ccc(OCC2CCC2)cn1)N1CCC(F)(F)[C@@H](c2ccc(=O)[nH]c2)C1 (stereo partly drawn) [Example 30, N-(5-(cyclobutyl-methoxy)pyridin-2-yl)-2-((S)-4,4-difluoro-3-(6-oxo-1,6-dihydropyridin-3-yl)piperidin-1-yl)propanamide] | 100 to 3160 nM |

Now from value to compound:

| IC50 | SMILES |
| --- | --- |
| 100 to 3160 nM | CC(C(=O)Nc1ccc(CC2CC2)cn1)N1CCC(F)(F)[C@@H](c2ccc(=O)[nH]c2)C1 (stereo partly drawn) [Example 41, N-(5-(cyclopropyl-methyl)pyridin-2-yl)-2-((S)-4,4-difluoro-3-(6-oxo-1,6-dihydropyridin-3-yl)piperidin-1-yl)propanamide] |
| 10 to 100 nM | C[C@@H](C(=O)Nc1ccc(OCC2CC2)cn1)N1CCC(F)(F)[C@@H](c2c[nH]c(=O)c(N)n2)C1 [Example 105, (S)-2-((R)-3-(6-amino-5-oxo-4,5-dihydropyrazin-2-y1)-4,4-difluoropiperidin-l-y1)-N-(5-(cyclopropylmethoxy)pyridin-2-yl)propanamide] |
| ≤ 10 nM | C[C@@H](C(=O)Nc1ccc(Oc2c(F)cc(F)cc2F)cn1)N1CCC(F)(F)[C@@H](c2ccc(=O)[nH]c2)C1 [Example 96, (S)-2-((S)-4,4-difluoro-3-(6-oxo-1,6-dihydropyridin-3-yl)piperidin-1-yl)-N-(5-(2,4,6-trifluorophenoxy)pyridin-2-yl)propanamide] |
| 100 to 3160 nM | CC(C(=O)Nc1ccc(Oc2ccc(F)cc2)nn1)N1CCC(F)(F)[C@@H](c2ccc(=O)[nH]c2)C1 (stereo partly drawn) [Example 63, 2-((S)-4,4-difluoro-3-(6-oxo-1,6-dihydropyridin-3-yl)piperidin-1-yl)-N-(6-(4-fluorophenoxy)pyridazin-3-yl)propanamide] |
| 100 to 3160 nM | C[C@@H](C(=O)Nc1ccc(OCC2CC2)cn1)N1CCC[C@@H](c2ccc(=O)[nH]n2)C1 (single isomer, unassigned) [Example 185] |
